What was measured:
[1] = test system: TNFα release from THP-1 cells; test: Inhibition of TNFα release from LPS-stimulated THP-1 cells, ELISA; assay type: cell-based; conditions: Homo sapiens, THP-1, THP-1 cells, read-out: [CELL] THP-1, IC50, TNF ALPHA, ELISA
Excerpt: Compounds of the invention are screened for the ability to inhibit TNFα and IL-1β release from THP-1 cells stimulated with lipopolysaccharide (LPS) in vitro. The ability of compounds to inhibit TNFα and IL-1β release in this in vitro assay is correlated with the inhibition of p38 activity and TNFα and IL-1β expression in vivo, and is therefore an indicator of potential in vivo therapeutic activity (Lee J. C. et al, Ann. N.Y. Acad. Sci. 696: 149-170, 1993 and Nature, 372: 739-746, 1994).
Materials: THP-1 cells from ATCC (TIB202) are maintained at 37° C., 5% CO2 in RPMI 1640 media (available from MediaTech, Herndon, Va.) containing 4.5 g/L glucose, supplemented with 10% fetal bovine serum, 1% penicillin/streptomycin and 50 μM β-mercaptoethanol.
Methods: Test compounds are initially dissolved in RPMI media with 1% DMSO (v/v). Compounds are then serially diluted in RPMI media for all subsequent dilutions. The assay is performed under sterile conditions. THP-1 cells at a culture density of 6-8×10^5 cells/ml are collected and resuspended in the RPMI media at 10^6 cells/ml containing 10% fetal bovine serum, no serum or 1% human serum albumin (HSA). 100 μl of resuspended cells are added to each well, which contain 100 μl of a test compound. Test compounds are prepared at twice the final concentration. Final DMSO concentration is no more than 0.5% (v/v). Cells are preincubated with compound for 30 minutes at 37° C., 5% CO2 prior to stimulation with lipopolysaccharide (LPS) (Sigma L-2880, 4 mg/ml stock in PBS). The final LPS concentration in each well is 10 or 30 μg/ml for TNFα and IL-1β release, respectively. Unstimulated control cell suspensions receive PBS vehicle only. Cell mixtures are incubated for 18 or 48 hours for TNFα and IL-1β prelease, respectively. 150 μl of supernatants are taken and transferred to a fresh plate and stored at −20° C. until further analysis. TNFα and IL-1β levels are measured using ELISA kits from Biosource (Catalog no. KHC3012 for TNFα; KAC1192 for IL-1β). A SpectraMAX 250 is used as the plate reader. Analysis is performed by non-linear regression to generate a dose response curve. The calculated IC50 value is the concentration of the test compound that causes a 50% decrease in TNFα or IL-1β levels.

p38α = target: T1, p38α (Homo sapiens, UniProt Q16539); test: p38 MAP Kinase assay: inhibition of ATF2 phosphorylation, ELISA; assay type: biochemical; conditions: for IC50: ATF2 phosphorylation, read-out: [ENZ] P38 ALPHA, IC50, ELISA; for inhibition at 10 µM: substrate ATF2, read-out: [ENZ] P38 ALPHA, PCT INH, ELISA (10 uM;ATF2) (Percent)
T1 construct: p38 MAP Kinases are recombinant human full-length proteins with an amino-terminal GST fusion; GST (N); purchased Upstate Biotechnology Inc; host or cells: E. coli
Excerpt: Compounds of the invention are screened for the ability to inhibit ATF2 phosphorylation by p38 MAP Kinase in vitro. The ability of compounds to inhibit ATF2 phosphorylation in this in vitro assay is correlated with the inhibition of p38 MAP Kinase and TNFα expression in vivo, and is therefore an indicator of potential in vivo therapeutic activity (Raingeaud, J., et al, J. Biol. Chem., 270: 7420-7426, 1995, Brinkman, M. N., et al, J. Biol. Chem. 274: 30882-30886, 1999 and Fuchs, S. Y. et al, J. Biol. Chem. 275: 12560-12564, 2000).
Materials: All kinases and the substrate ATF2 are acquired from Upstate Biotechnology Inc. p38 MAP Kinases are recombinant human full-length proteins with an amino-terminal GST fusion, expressed in and purified from E. coli. ATF2 is a GST fusion protein containing amino acids 19-96 of human ATF2 expressed in E. coli. All proteins are aliquoted and stored at −80° C.
Methods: p38 MAP Kinase assays are performed using an assay buffer containing 25 mM HEPES, pH 7.5, 10 mM MgCl2, 2 mM DTT, 20 mM β-glycerophosphate, 0.1 mM Na3VO4, 40 μM ATP and 1.25 μM of ATF2 and in the absence or presence of 1% human serum albumin, Method I and II, respectively, with 0.4-6 ng of protein depending on the kinase used. Compounds are serially diluted in DMSO and 2 μL of test compound at 25× final concentration is used. The vehicle control receives DMSO only. Test compounds are pre-incubated with 20 μl of enzyme in kinase buffer (25 mM HEPES, pH 7.5, 10 mM MgCl2, 2 mM DTT, 20 mM β-glycerophosphate, 0.1 mM Na3VO4 in the absence or presence of 1% human serum albumin, Method I and II, respectively) at room temperature for 15 minutes. […] The reactions are incubated for 30 minutes at 37° C. and terminated by the addition of 18 μl of 200 mM EDTA. An ELISA method (I or II) is used to measure the phosphorylation of ATF2 at Thr 69. Method I: 96-well high binding plates (Corning 3369) are coated with 50 μl of kinase reaction for 1 hour at 37° C. The coated plates are washed with 200 μl washing buffer (25 mM Tris HCl, pH 8.3, 192 mM glycine, 0.1% SDS and 0.05% Tween-20) three times. The plates are then washed three times with SuperBlock in TBS (Pierce, 37535). After blocking, plates are incubated with 50 μl of rabbit anti-phospho-ATF2 antibody (Cell Signaling, 9221L, 1:500) for 30 minutes at 37° C. Plates are washed three times with washing buffer prior to incubation with 50 μl HRP-conjugated goat anti-rabbit antibody (Cell Signaling, 7074, 1:500) for 30 minutes at 37° C. Plates are then washed three times with washing buffer before incubation with 50 μl of Ultra TMB-ELISA (Pierce, 34028) for 8 minutes at room temperature. Finally, 50 ul of phosphoric acid (1 M) is added to stop reactions and plate absorbance is read at 450 nm on a SpectraMax 250 plate reader. Method II: 96-well high binding plates (Corning 3369) are coated with 400 ng of monoclonal antibody against GST-tag (Cell signaling) in 100 μl containing sodium borate (pH 8.3) for 90 minutes at 37° C. The plates are washed with 200 μl washing buffer (25 mM Tris HCl, pH 7.2, 150 mM NaCl and Tween-20) three times and blocked with 200 μl of 5% nonfat milk for 30 minutes at room temperature. The plates are washed three times with washing buffer, 50 μl of stopped kinase reaction are added to each well and incubated for 80 minutes at 37° C. The plates are washed three times with 200 μl washing buffer, and the plates are incubated with 50 μl of rabbit anti-phospho-ATF2 antibody (Cell Signaling, 9221L, 1:500) for 30 minutes at 37° C. Plates are washed three times with washing buffer prior to incubation with 50 μl HRP-conjugated goat anti-rabbit antibody (Cell Signaling, 7074, 1:500) for 30 minutes at 37° C. Plates are washed three times with washing buffer before incubation with 50 μl of Ultra TMB-ELISA (Pierce, 34028) for 25 minutes at room temperature. Finally, 50 μl of phosphoric acid (1 M) is added to stop reactions and plate absorbance is read at 450 nm on a SpectraMax 250 plate reader. […]

T1 sequence (Q16539 whole entry, the tested form may be a part): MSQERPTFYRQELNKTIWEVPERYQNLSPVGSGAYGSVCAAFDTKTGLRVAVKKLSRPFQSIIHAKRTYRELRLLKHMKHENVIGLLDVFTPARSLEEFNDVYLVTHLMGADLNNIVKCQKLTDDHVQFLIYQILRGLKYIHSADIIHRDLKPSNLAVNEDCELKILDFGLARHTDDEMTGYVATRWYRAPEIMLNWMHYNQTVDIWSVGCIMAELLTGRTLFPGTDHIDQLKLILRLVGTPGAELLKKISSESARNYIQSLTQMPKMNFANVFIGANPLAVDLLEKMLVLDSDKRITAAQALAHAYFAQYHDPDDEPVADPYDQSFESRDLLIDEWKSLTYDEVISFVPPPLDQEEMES

SMILES	IC50 [1] [µM]	IC50 (p38α) [µM]	inhibition at 10 µM (p38α) [%]
O=C(Nc1ccc(OCCN2CCOCC2)c2ccccc12)c1cc(Cl)nc(N2CCOCC2)c1 [Compound B305]	2.48	1.41	–
O=C(Nc1ccc(OCCN2CCOCC2)c2ccccc12)c1cccc(-c2cc(Cl)ccc2Cl)c1 [Compound B295]	2.83	5.03	–
CC1CCN(c2cc(C(=O)Nc3ccc(OCCN4CCOCC4)c4ccccc34)ccn2)CC1 [Compound B128, 4-Methyl-3,4,5,6-tetrahydro-2 H-[1,2′]bipyridinyl-4′-carboxylic acid [4-(2-morpholin-4-yl-ethoxy)-naphthalen-1-yl]-amide]	8.71	1.15	82
O=C(Nc1ccc(OCCN2CCOCC2)c2ccccc12)c1cccc(-c2cccc(C(F)(F)F)c2)c1 [Compound B88, 3′-Trifluoromethyl-biphenyl-3-carboxylic acid [4-(2-morpholin-4-yl-ethoxy)-naphthalen-1-yl]-amide]	3.6	1.85	59
CC1CCN(c2cc(F)cc(C(=O)Nc3ccc(OCc4nn[nH]n4)c4ccccc34)c2)CC1 [Compound B193, 3-Fluoro-5-(4-methylpiperidin-1-yl)-N-[4-(2H-tetrazol-5-ylmethoxy)-naphthalen-1-yl]-benzamide]	> 10	3.84	–
O=C(Nc1ccc(OCCN2CCOCC2)c2ccccc12)c1ccccc1 [Compound B26]	> 10	21.8	–
O=C(Nc1ccc(Oc2ccnc(NC3CCS(=O)(=O)C3)n2)c2ccccc12)c1cc(F)cc(N2CCCCC2)c1 (centres unmarked) [Compound B406]	0.117	0.0196	–
O=C(Nc1ccc(OCCN2CCOCC2)c2ccccc12)c1cc(Br)ccc1Cl [Compound B38]	> 10	> 10	–
CCN(C)c1cc(C(=O)Nc2ccc(OCCN3CCOCC3)c3ccccc23)ccn1 [Compound B133, 2-(Ethyl-methyl-amino)-N-[4-(2-morpholin-4-yl-ethoxy)-naphthalen-1-yl]-isonicotinamide]	8.5	7.68	52
CC1CCCN1c1cc(C(=O)Nc2ccc(OCCN3CCOCC3)c3ccccc23)ccn1 (centres unmarked) [Compound B130, 2-(2-Methyl-pyrrolidin-1-yl)-N-[4-(2-morpholin-4-yl-ethoxy)-naphthalen-1-yl]-isonicotinamide]	2.34	0.822	88.5
O=C(Nc1ccc(OCCN2CCOCC2)c2ccccc12)c1ccc(N2CCOCC2)cc1 [Compound B29]	> 10	> 10	–
O=C(Nc1ccc(NCCN2CCOCC2)c2ccccc12)c1cc(F)cc(N2CCCCC2)c1 [Compound B242]	10.6	2.03	–
O=C(Nc1ccc(OCCN2CCOCC2)c2ccccc12)c1ccc2ccccc2c1 [Compound B85]	4.03	3.18	66
O=C(Nc1ccc(OCCN2CCOCC2)c2ccccc12)c1cccc(-c2cc(F)ccc2F)c1 [Compound B280]	3.52	5.6	–
O=C(Nc1ccc(OCCN2CCOCC2)c2ccccc12)c1cccc(-c2ccc3c(c2)OCO3)c1 [Compound B273]	> 10	> 10	–
CCc1ccccc1-c1cccc(C(=O)Nc2ccc(OCCN3CCOCC3)c3ccccc23)c1 [Compound B291]	6.14	9.19	–
CC1CCCC(C)N1c1cc(F)cc(C(=O)Nc2ccc(OCCN3CCOCC3)c3ccccc23)c1 (centres unmarked) [Compound B205, 3-(2,6-Dimethylpiperidin-1-yl)-5-fluoro-N-[4-(2-morpholin-4-ylethoxy)-1-naphthyl]benzamide]	> 10	1.68	–
CC(=O)c1cccc(-c2cccc(C(=O)Nc3ccc(OCCN4CCOCC4)c4ccccc34)c2)c1 [Compound B279]	> 10	> 10	–
COc1ccc(F)cc1-c1cccc(C(=O)Nc2ccc(OCCN3CCOCC3)c3ccccc23)c1 [Compound B289]	3.09	1.47	–
O=C(Nc1ccc(Oc2ccnc(N3CCC(O)C3)n2)c2ccccc12)c1cc(F)cc(N2CCCCC2)c1 (centres unmarked) [Compound B393]	0.715	0.0168	–
O=C(Nc1ccc(OCCN2CCOCC2)c2ccccc12)c1cccc(-c2ccccc2Cl)c1 [Compound B101]	2.03	0.864	87
O=C(Nc1ccc(OCCN2CCOCC2)c2ccccc12)c1cccc(-c2ccccc2)c1 [Compound B84, Biphenyl-3-carboxylic acid [4-(2-morpholin-4-yl-ethoxy)-naphthalen-1-yl]-amide]	2.03	0.451	88
O=C(Nc1ccc(OCCN2CCOCC2)c2ccccc12)c1cccc(-c2cccc(F)c2)c1 [Compound B272]	3.4	–	–
CN(C)C(=O)[C@@H]1CCCN1c1nccc(Oc2ccc(NC(=O)c3cc(F)cc(N4CCCCC4)c3)c3ccccc23)n1 [Compound B408]	> 1	–	–

Source: patent US7829560B2, “1,4-disubstituted naphthalenes as inhibitors of P38 MAP kinase” (Arqule, Inc., priority 2004, dated 2010)
